Experimental data from patent publication US5360796A, “Imidazo[1,2-a]pyridinylalkyl phosphonic acid compounds for treatment of neurotoxic injury” (G. D. Searle & Co., priority 1991, dated 1994).

Key:
NMDA receptor = experiment: NMDA-Selective Glutamate Binding Assay (L-[3H]glutamate); parameters: species or system rat; conditions: 12.5 nM L-[3H]glutamate, synaptic plasma membranes, pH 7.4, 0-4° C., 10 min; read-out: NMDA Receptor Binding Data, Ki IC50 Binding NMDA
Procedure: Synaptic plasma membranes (SPM) were prepared as previously described [Monahah, J. B. and Michel, J., "Identification and Characterization of an N-methyl-D-aspartate-specific L[^3 H]glutamate Recognition Site in Synaptic Plasma Membranes, J. Neurochem., 48, 1699-1708 (1987)]. The SPM were stored at a concentration of 10-15 mg/ml in 0.32M sucrose, 0.5 mM EDTA, 1 mM MgSO4, 5 mM Tris/SO4, pH 7.4, under liquid nitrogen. The identity and purity of the subcellular fractions were confirmed by both electron microscopy and marker enzymes. Protein concentrations were determined by using a modification of the method of Lowry [Ohnishi, S. T. and Barr, J. K., "A Simplified Method of Quantitating Proteins using the Biuret and Phenol Reagents", Anal. Biochem., 86, 193-197 (1978)]. The SPM were treated identically for the [^3 H]AMPA (QUIS), [^3 H]kainate and sodium-dependent L-[^3 H]-glumatate binding assays. The SPM were thawed at room temperature, diluted twenty-fold with 50mM Tris/acetate, pH 7.4, incubated at 37° C. for 30 minutes, and centrifuged at 100,000 g for 15 minutes. The dilution, incubation, and centrifugation was repeated a total of three times. Prior to use in the NMDA-specific L-[^3 H]-glutamate binding assay the SPM were thawed, diluted twenty fold with 50 mM Tris/acetate, pH 7.4 containing 0.04% (v/v) Triton X-100, incubated for 30 minutes at 37° C. and centrifuged as described above. The Triton X-100 treated membranes were washed with 50 mM Tris/acetate, pH 7.4 and centrifuged at 100,000 g for 15 minutes a total of four times. […] The basic procedure for the receptor subclass binding assays was similar. This general method involved adding the radioligand (12.5 nM L-[^3 H] glutamate; 0.5 nM [^3 H]kainate or 10 nM [^3 H]AMPA) to the appropriate concentration of the test compound and initiating the assay by the addition of ice cold synaptic plasma membranes (0.2-0.45 mg). The binding assays were performed in 1.5 mL centrifuge tubes with the total volume adjusted to 1.0 mL. Additions of test compounds were made in 50 mM Tris/acetate, pH 7.4 and incubations were carried out at 0°-4° C. The incubation time for the NMDA and the AMPA binding assays was 10 minutes, for the kainate binding assay 60 minutes and for the sodium-dependent glutamate binding assay 15 minutes. The AMPA binding assay contained 100 mM KSCN and the sodium-dependent glutamate binding assay contained 150 mM sodium acetate in addition to the previously described reagents. To terminate the incubation, the samples were centrifuged for 15 minutes at 12,000 g and 4° C. in a Beckman Microfuge 12. The supernatant was aspirated and the pelleted membranes dissolved in Beckman BTS-450 tissue solubilizer for a minimum of 6 hours at room temperature. Beckman MP scintillation cocktail containing 7 mL/1 acetic acid was then added and the samples counted on a Beckman LS 5800 or 3801 liquid scintillation counter with automatic corrections for quenching and counting efficiency. Nonspecific binding was defined as the residual binding in the presence of either excess L-glutamate (0.1-0.4 mM), kainate (0.01 mM), or NMDA (0.5 mM), and was 15-25% of the total binding in the NMDA binding assay, 19-27% in the AMPA binding assay, 20-30% in the kainate binding assay and 10-15% in the sodium-dependent binding assay. Radioligand binding to the synaptic plasma membranes was analyzed using Scatchard and Hill transformations and the Ki values of the compounds determined using logit-log transformations. Calculations and regression analysis were performed using templates developed for Lotus 1, 2, 3 as previously described [Pullan, L. M. "Automated Radioligand Receptor Binding Analysis with Templates for Lotus", Computer Appln. Biosci., 3, 131 (1987)]. Binding results are reported in Table I for example compounds of the invention.

[1] = system: CA1 region of the hippocampus; experiment: Forebrain Ischemia Assay; format: in vivo, Mongolian gerbil; conditions: for # of Neurons/Field: 7 days after 4-5 min carotid occlusion
Procedure: This assay was used to determine the extent of protection afforded by compound of the invention to neural brain cells subjected to ischemic conditions. Male Mongolian gerbils, 50-70 gm, were used as subjects. Compound No. 7 (30 mg/kg) was injected j.p. 30 minutes prior to carotid occlusion into 6 gerbils […]. In preparation for surgical procedures, the animals were lightly anesthetized with methoxyflurane and placed upside down on a heated pad with their snout within a nosecone. A 70:30 mixture of nitrous oxide and oxygen containing 0.5% halothane was circulated through the nosecone to provide continuous anesthesia throughout the surgical procedure. A midline incision was made in the neck and the carotid arteries were exposed. A length of suture thread was placed under each carotid. The thread was then tightened around each carotid and pressure applied to the thread to insure flow was occluded. Flow was occluded for 4-5 minutes and then the thread was removed. The carotids were visually inspected to confirm that reflow had occurred. The wound was then closed with autoclips and the gerbils allowed to recover. Following surgery, the gerbils were kept alive for 7 days. They were anesthetized with 100 mg/kg sodium pentobarbital and perfused transcardially with saline (with heparin) followed by buffered formalin. The brain was removed, trimmed and prepared for histological processing. Sections (10 microns) were stained with thionin. […] Quantification of the resulting lesion is made by counting the pyramidal cell somata in a 0.5 mm length of CAl of the hippocampus on the section corresponding to P 1.7 mm in the gerbil brain atlas.
Normal cell count in this region of the hippocampus in unoperated gerbils is 146±2. The effects of compound of Ex. #7 were assessed by comparing the number of neural cells found in the hippocampus of subjects treated with Ex. #7 compound with the cell number found in the appropriate control groups. […]

[2] = system: tonic hindlimb extensor seizures; experiment: Anticonvulsant Assay (electroconvulsive shock); format: in vivo, mouse (CD-1); conditions: for Protected from ECS (% of Mice): 30 min prior to ECS
From the text: The screens were then slowly inverted. […] The current was held constant at 15 mA. […] There were 10 mice in each treatment group.

O=C(O)c1cn2c(CP(=O)(O)O)cccc2n1 [Example 7, 5-(phosphonomethyl)imidazo[1,2-a]pyridine-2-carboxylic acid]
Ki (NMDA receptor): 2400 nM
# of Neurons/Field ([1]; 300 mg/kg, control 32.8, P < 0.05): 53.0
# of Neurons/Field ([1]; 500 mg/kg, control 17.0, p < 0.0001): 112.6
cell loss ([1]; vs control, Mann-Whitney U test): significantly reduced
Protected from ECS (% of Mice) ([2]; 10 mg/kg s.c.): 20%
Protected from ECS (% of Mice) ([2]; 32 mg/kg s.c.): 60%
Protected from ECS (% of Mice) ([2]; 56 mg/kg s.c.): 90%
Protected from ECS (% of Mice) ([2]; 100 mg/kg s.c.): 100%
ED50 ([2]; Mus musculus, sc, 0.5 h, s.c., doses in mg/kg, 95% CI 12.3-32.9, read-out: Protected from ECS ED50): 21.8 mg/kg
protection against tonic hindlimb extensor seizures (in words) ([2]; s.c.): protected against tonic hindlimb extensor seizures in a dose-dependent fashion
